# Reference: patent US8815892B2, “P2X7R antagonists and their use” (Affectis Pharmaceuticals AG, priority 2008, dated 2014)
# Assays:
# [1] = test system: LPA-induced neuropathic pain in C57/Bl6 mice; assay: Lysophosphatidic acid (LPA)-induced neuropathy, mechanical hyperalgesia (digital Randall-Selitto); format: in vivo, mouse; details: 1 hour after dosing
# Protocol: The therapeutic effects of the compounds of the present invention were assessed in the lysophosphatidic acid (LPA)-induced neuropathy in mice. This model is commonly used to evaluate the potential analgesic activity of compounds designed to treat neuropathic pain in humans (Inoue et al. (2004) Nat Med 10: 712-718; Inoue et al. (2008). Mol Pain 4(6) doi:10.1186/1744-8069-4-6). In this example, a representative compound of the invention, 4-chloro-N-(cycloheptylmethyl)-1-(2-hydroxyethyl)-1H-indole-3-carboxamide (Example 54), was tested.
# Neuropathic pain was induced in male, C57/Bl6 mice (Harlan) by an intrathecal injection of 1 nmol LPA (prepared in saline; ENZO) in a 5 μL volume into the spinal cord. Pre-LPA injection, post-LPA injection and post-treatment values for mechanical hyperalgesia were evaluated using a digital Randall-Selitto device (dRS; IITC Life Sciences). Paw compression threshold was measured once at each time point for the left and right paws. […] The readings from the left and right paws were averaged at each time point. […]
# Vehicle (0.5% carboxymethylcellulose (CMC)) or between 125-500 mg/kg of a compound of the present invention (dissolved in 0.5% CMC) were administered via oral gavage two days after LPA injection. […] If a significant main effect was detected, Dunnetts' post hoc test was used to compare treatment to vehicle treated animals. […]
# EAE in SJL mice = assay: Relapsing-remitting experimental autoimmune encephalomyelitis (EAE), PLP139-151/CFA model of multiple sclerosis; format: in vivo, mouse; details: SJL female mice
# Protocol: The therapeutic effects of the compounds of the present invention were assessed in a mouse model of relapsing-remitting multiple sclerosis MS. The relapsing-remitting experimental autoimmune encephalomyelitis (EAE) which develops in SJL mice after immunization with the Proteolipid Protein PLP139-151 and Complete Freund's Adjuvant (CFA) is the mouse model which most closely resembles human remitting/relapsing MS (see Webb et al (2004) J Neuroimmunol 153:108-121). In this example, a representative compound of the invention, 4-chloro-N-(cycloheptylmethyl)-1-(2-hydroxyethyl)-1H-indole-3-carboxamide (Example 54), was tested.
# EAE was induced in SJL female mice (Jackson Labs), using a PLP139-151/CFA Emulsion (Hooke Laboratories, Lawrence Mass.) according to the manufacturer's recommended protocol. Mice were injected subcutaneously at four sites (0.05 mL at each site) in the back with the emulsion. Two sites of injection were in the area of the upper back, approximately 1 cm caudal of the neck line. The other two sites were in the area of the lower back, approximately 2 cm cranial of the base of the tail. Individual animals were then examined daily for clinical signs of neurological deficits scored on a 0 to 5 scale as follows: 0, no abnormality; 0.5, stiff tail; 1, limp tail; 1.5, limp tail with inability to right; 2, paralysis of one limb; 2.5, paralysis of one limb and weakness of one other limb; 3, complete paralysis of both hind limbs; 4, moribund; 5, death. Daily scoring for signs of EAE started on Day 7 after immunization with the first symptoms observed between Days 11 and 15 after immunization. Treatment for each animal began on the second day that the animal developed EAE symptoms. […] The effect of treatment on development of EAE relapses was evaluated by comparing incidence and severity of relapses, and the end scores between the compound-treated groups and the vehicle group. Incidence of relapse were compared using two-tailed Fisher's exact test and the end scores between vehicle and treatment groups were calculated using Wilcoxon's non-parametric test. […]
SMILES,mechanical hyperalgesia (paw compression thresholds) compared to pre-treatment baseline ([1]; 100 mg/kg intraperitoneal two days after LPA injection),"treated animals that developed relapses (EAE in SJL mice; 125 to 500 mg/kg twice daily oral gavage from second day of EAE symptoms, vehicle 50.0%, p=0.0038) [%]","average EAE score on Day 40 (end of the study) (EAE in SJL mice; 125 to 500 mg/kg twice daily oral gavage, 0 to 5 scale, vehicle 1.34, p=0.0021)","day of relapse (the one mouse of the group that relapsed) (EAE in SJL mice; 125 to 500 mg/kg twice daily oral gavage, vehicle mean day of relapse 22, delay p=0.0039) [days]","mean paw compression thresholds compared to pre-treatment baseline ([1]; 125-500 mg/kg oral gavage two days after LPA injection, p<0.05)"
"NCC1(CC(=O)O)CCCCC1 [gabapentin, reference compound]",slight decrease in mechanical hyperalgesia,,,,
"O=C(NCC1CCCCCC1)c1cn(CCO)c2cccc(Cl)c12 [Example 54, 4-chloro-N-(cycloheptylmethyl)-1-(2-hydroxyethyl)-1H-indole-3-carboxamide]",,6,0.50,40,significantly increased mean paw compression thresholds
